Reference: US20100022457A1 (Bristol-Myers Squibb Company, priority 2006, published 2010)
Where a SMILES comes first, the peptide text is derived from it. [ ]: non-standard residue; d: D form. Ala(6-(2-MePh)pyridin-3-yl) = Cc1ccccc1-c1ccc(C[C@H](N)C(=O)O)cn1; Bip(2'-Et-4'-OMe) = CCc1cc(OC)ccc1-c1ccc(C[C@H](N)C(=O)O)cc1; αMePhe(2-F) = C[C@](N)(Cc1ccccc1F)C(=O)O; Aib = CC(C)(N)C(=O)O

What was measured:
[1] = Solubility of the compound of SEQ ID NO:9 in the presence of Zn(II) / Zn adduct; assay type: physicochemical; settings: pH 6.8, 50 mM phosphate buffer
Method: The concentration of the compound of SEQ ID NO:9 was analyzed by a Waters HPLC system (Waters 2690 Separations Module and Waters 996 Photodiode Array Detector). A gradient method was used where solvent A is 0.05% trifluoroacetic acid (TFA, Sigma) in water, and solvent B is 0.05% TFA in acetone nitrile (ACN, Sigma). Light at a wavelength of 220 nm was used to detect the absorption of the compound of SEQ ID NO:9.
Once the Zn/Compound of SEQ ID NO:9 adduct was formed, formulation development studies were conducted in order to evaluate the solubility of the compound of SEQ ID NO:9 in the presence of Zn(II). An excess amount of the compound of SEQ ID NO:9 was suspended in pH 6.8, 50 mM phosphate buffer. The suspension was then placed on an orbital shaker (Model, 100 RPM) at ambient temperature for 12 hours. The suspension was then centrifuged (Model, speed) and the saturated the clear supernatant of the compound of SEQ ID NO:9 was collected into 10 ml centrifuge tubes. A predetermined amount of zinc acetate solution (50 mM, pH 6.8 phosphate buffer) was added into the saturated solution and then precipitated. The concentration of the compound of SEQ ID NO:9 in solution was obtained by centrifuging the suspension and analyzing the clear supernatants by HPLC. […]

[2] = Solubility of protamine/Compound of SEQ ID NO:9 adduct and in protamine solution; assay type: physicochemical
Excerpt: Thus, the administration of the protamine/Compound of SEQ ID NO:9 adduct may need a suitable suspending agent; or it maybe injected as dry powder.
Therefore, suspension of the compound of SEQ ID NO:9 in the presence of protamine could still provide extended release effect without using pre-formed protamine/SEQ ID NO:9 adduct.

In the case of `CCc1cc(OC)ccc1-c1ccc(C[C@H](NC(=O)[C@H](CC(=O)O)NC(=O)[C@H](CO)NC(=O)[C@@H](NC(=O)[C@](C)(Cc2ccccc2F)NC(=O)[C@@H](NC(=O)CNC(=O)[C@H](CCC(=O)O)NC(=O)C(C)(C)NC(=O)[C@@H](N)Cc2c[nH]cn2)[C@@H](C)O)[C@@H](C)O)C(=O)N[C@@H](Cc2ccc(-c3ccccc3C)nc2)C(N)=O)cc1` [SEQ ID NO: 9] (H-H[Aib]EGT[αMePhe(2-F)]TSD[Bip(2'-Et-4'-OMe)][Ala(6-(2-MePh)pyridin-3-yl)]-NH2), the “apparent solubility with addition of Zn (II)” value [1] is reported as “continued to decrease until below the detection limit of HPLC”, the solubility at 12 h ([1]; read-out: concentration of saturated solution (solubility)) is reported as 17 µg/mL and the solubility ([2]; MeOH) is reported as > 50000 µg/mL. The “solubility as a function of protamine in the solution” value ([2]; pH 6.8, 50 mM PB buffer) was “decreases with increase of protamine in the solution”.
